{"source": "patent US20260137707A1", "about": "“METHODS OF MODULATING ATXN2 EXPRESSION” (University of Utah Research Foundation, priority 2022, published 2026)", "key": {"ATXN2-luc [1]": {"tested_on": "ATXN2-luc", "details": "average ATXN2-luc response of H2 and S1 cells"}, "ATXN2-luc [2]": {"tested_on": "ATXN2-luc", "details": "H2 cells"}, "ATXN2-luc [3]": {"tested_on": "ATXN2-luc", "test": "cells", "details": "for activity at 1 µM: read-out: Luc at 1 μm; for activity at 10 µM: read-out: Luc at 10 μm"}, "CMV-luc": {"tested_on": "CMV-luc", "test": "Secondary assays, Bright-Glo luciferase in SC cells", "format": "cell-based", "details": "minimum CMV-luc luciferase in SC cells over 12 doses", "method": "(§1) Compounds were plated at 2× concentrations in 25 μl in 384 well plates with each compound dose plated in triplicate. An equal volume of S2, H2, or SC cells (24,000 cells/well) suspended in phenol-red free Dulbecco's Modified Eagle Medium (DMEM) with 10% fetal bovine serum and 1× penicillin/streptomycin were added. Cells were grown 24 hrs then assayed first by using the CellTiter-Fluor reagent (20 μl) followed by the addition of Bright-Glo ([…]) luciferase assay, using a multimode plate reader (Beckman DT880). Values were reported as the mean±standard deviation (SD) with n=3. IC50s were determined by the Hill coefficient method using an online tool (https://www.aatbio.com/tools/ic50-calculator).\n(§2) For CMV-luc and viability charts, the fitted lines are second-order polynomials. Means and SD are shown."}, "ATXN2-luc [4]": {"tested_on": "ATXN2-luc", "test": "Secondary assays, Bright-Glo luciferase in H2 and S2 cells", "format": "cell-based", "method": "as §1\nThese 46 compounds were retested at 12 doses and a zero-compound dose, in multiplexed assays in 96-well plates using CellTiter-Fluor to determine cell viability, then Bright-Glo to determine luciferase expression. The values for H2 and S2 were used as replicates to calculate IC50s and to assess cell viability.\nas §2"}, "[5]": {"details": "Table 1, 24 hrs, single 10 μM dose, Z-score of luciferase"}}, "note": "Counter-ions that a name gives are not always drawn. Like-named read-outs stand apart in the source and are kept apart here.", "data": [{"molecule": "C/C1=C2/[N-][C@H]([C@H](CC(N)=O)[C@@]2(C)CCC(=O)NC[C@@H](C)OP(=O)([O-])O[C@H]2[C@@H](O)[C@@H](n3cnc4cc(C)c(C)cc43)O[C@@H]2CO)[C@]2(C)N=C(/C(C)=C3N=C(/C=C4N=C1[C@@H](CCC(N)=O)C\\4(C)C)[C@@H](CCC(N)=O)[C@]\\3(C)CC(N)=O)[C@@H](CCC(N)=O)[C@]2(C)CC(N)=O.[Co]", "note": "[COBALAMINE]", "values": [{"measurement": "Luc at 1 μm", "setting": "ATXN2-luc [1]", "result": 126}, {"measurement": "Luc at 10 μm", "setting": "ATXN2-luc [1]", "result": 109}, {"measurement": "SD from Mean", "setting": "ATXN2-luc [2]; [5]", "result": "−5.111", "unit": "SD"}, {"measurement": "SD from Mean", "setting": "ATXN2-luc [2]; Table 5S, pilot screen, 10 μM", "result": "−5.111", "unit": "SD"}]}, {"molecule": "CC[C@H]1CN2CCc3cc(OC)c(OC)cc3[C@@H]2C[C@@H]1C[C@H]1NCCc2cc(O)c(OC)cc21.Cl.Cl.O.O.O.O.O.O.O", "note": "[Cephaeline dihydrochloride heptahydrate]", "values": [{"measurement": "Luc at 1 μm", "setting": "ATXN2-luc [1]", "result": 16}, {"measurement": "Luc at 10 μm", "setting": "ATXN2-luc [1]", "result": 17}, {"measurement": "SD from Mean", "setting": "ATXN2-luc [2]; [5]", "result": "−4.055", "unit": "SD"}, {"measurement": "SD from Mean", "setting": "ATXN2-luc [2]; Table 5S, pilot screen, 10 μM", "result": "−4.055", "unit": "SD"}]}, {"molecule": "CCCCCCCCCOc1ccc2[nH]cc(CCN)c2c1", "note": "[ChemBridge ID# 5629242]", "values": [{"measurement": "Luc at 1 μm", "setting": "ATXN2-luc [1]", "result": 110}, {"measurement": "Luc at 10 μm", "setting": "ATXN2-luc [1]", "result": 58}, {"measurement": "SD from Mean", "setting": "ATXN2-luc [2]; [5]", "result": "−3.609", "unit": "SD"}]}, {"molecule": "CO[C@H]1[C@@H](O)[C@@H](C)O[C@@H](O[C@H]2CC[C@]3(C)[C@H]4CC[C@]5(C)[C@@H](C6=CC(=O)OC6)CC[C@]5(O)[C@@H]4CC[C@]3(O)C2)[C@@H]1O", "note": "[EMICYMARIN]", "values": [{"measurement": "Luc at 1 μm", "setting": "ATXN2-luc [1]", "result": 115}, {"measurement": "Luc at 10 μm", "setting": "ATXN2-luc [1]", "result": 31}, {"measurement": "SD from Mean", "setting": "ATXN2-luc [2]; [5]", "result": "−3.080", "unit": "SD"}, {"measurement": "SD from Mean", "setting": "ATXN2-luc [2]; Table 5S, pilot screen, 10 μM", "result": "−3.080", "unit": "SD"}]}, {"molecule": "CS(=O)(=O)Nc1ccc(Cc2noc(-c3ccc4[nH]cc(CCN)c4c3)n2)cc1", "note": "[L-694 247]", "values": [{"measurement": "Luc at 1 μm", "setting": "ATXN2-luc [1]", "result": 110}, {"measurement": "Luc at 10 μm", "setting": "ATXN2-luc [1]", "result": 6}, {"measurement": "SD from Mean", "setting": "ATXN2-luc [2]; [5]", "result": "−3.156", "unit": "SD"}, {"measurement": "SD from Mean", "setting": "ATXN2-luc [2]; Table 5S, pilot screen, 10 μM", "result": "−3.156", "unit": "SD"}]}, {"molecule": "CO[C@H]1[C@H](O)[C@H](O[C@H]2CC[C@@]3(C=O)[C@H](CC[C@@H]4[C@@H]3CC[C@]3(C)[C@@H](C5=CC(=O)OC5)CC[C@]43O)C2)O[C@@H](C)[C@@H]1O", "note": "[PERUVOSIDE]", "values": [{"measurement": "activity at 1 µM", "setting": "ATXN2-luc [3]", "result": 15, "unit": "%"}, {"measurement": "activity at 10 µM", "setting": "ATXN2-luc [3]", "result": 12, "unit": "%"}, {"measurement": "SD from Mean", "setting": "ATXN2-luc [2]; [5]", "result": "−4.038", "unit": "SD"}, {"measurement": "SD from Mean", "setting": "ATXN2-luc [2]; Table 5S, pilot screen, 10 μM", "result": "−4.038", "unit": "SD"}]}, {"molecule": "CC(=O)Oc1cccc(O)c1", "note": "[RESORCINOL MONOACETATE]", "values": [{"measurement": "activity at 1 µM", "setting": "ATXN2-luc [3]", "result": 120, "unit": "%"}, {"measurement": "activity at 10 µM", "setting": "ATXN2-luc [3]", "result": 5, "unit": "%"}, {"measurement": "SD from Mean", "setting": "ATXN2-luc [2]; [5]", "result": "−6.242", "unit": "SD"}, {"measurement": "SD from Mean", "setting": "ATXN2-luc [2]; Table 5S, pilot screen, 10 μM", "result": "−6.242", "unit": "SD"}]}, {"molecule": "C[C@]12CC[C@H](O)C[C@H]1CC[C@@H]1[C@@H]2[C@H](O)C[C@]2(C)[C@@H](C3=CC(=O)OC3)CC[C@]12O", "note": "[SARMENTOGENIN]", "values": [{"measurement": "activity at 1 µM", "setting": "ATXN2-luc [3]", "result": 53, "unit": "%"}, {"measurement": "activity at 10 µM", "setting": "ATXN2-luc [3]", "result": 24, "unit": "%"}, {"measurement": "SD from Mean", "setting": "ATXN2-luc [2]; [5]", "result": "−3.539", "unit": "SD"}]}, {"molecule": "COc1ccc(CCCOC(Cn2ccnc2)c2ccc(OC)cc2)cc1", "note": "(centres unmarked) [SKF-96365]", "values": [{"measurement": "activity at 1 µM", "setting": "ATXN2-luc [3]", "result": 104, "unit": "%"}, {"measurement": "activity at 10 µM", "setting": "ATXN2-luc [3]", "result": 57, "unit": "%"}, {"measurement": "SD from Mean", "setting": "ATXN2-luc [2]; [5]", "result": "−2.721", "unit": "SD"}, {"measurement": "SD from Mean", "setting": "ATXN2-luc [2]; Table 5S, pilot screen, 10 μM", "result": "−2.721", "unit": "SD"}]}, {"molecule": "C[C@]12CC[C@H]3[C@@H](CC[C@]4(O)C[C@@H](O)CC[C@]34C=O)[C@@]1(O)CC[C@@H]2C1=CC(=O)OC1", "note": "[STROPHANTHIDIN]", "values": [{"measurement": "activity at 1 µM", "setting": "ATXN2-luc [3]", "result": 16, "unit": "%"}, {"measurement": "activity at 10 µM", "setting": "ATXN2-luc [3]", "result": 15, "unit": "%"}, {"measurement": "SD from Mean", "setting": "ATXN2-luc [2]; Table 5S, pilot screen, 10 μM", "result": "−4.451", "unit": "SD"}]}, {"molecule": "[H]/N=C(/NCCCCC)N/N=C/c1c[nH]c2ccc(OC)cc12", "note": "[TEGASEROD MALEATE]", "values": [{"measurement": "activity at 10 µM", "setting": "ATXN2-luc [3]", "result": 8, "unit": "%"}, {"measurement": "SD from Mean", "setting": "ATXN2-luc [2]; [5]", "result": "−3.606", "unit": "SD"}]}, {"molecule": "CN1CCN(CCCN2c3ccccc3Sc3ccc(C(F)(F)F)cc32)CC1", "note": "[TRIFLUOPERAZINE HYDROCHLORIDE]", "values": [{"measurement": "activity at 10 µM", "setting": "ATXN2-luc [3]", "result": 2, "unit": "%"}, {"measurement": "SD from Mean", "setting": "ATXN2-luc [2]; [5]", "result": "−5.856", "unit": "SD"}, {"measurement": "SD from Mean", "setting": "ATXN2-luc [2]; Table 5S, pilot screen, 10 μM", "result": "−5.856", "unit": "SD"}]}, {"molecule": "Nc1ccc(-c2ccc3ncc4ccc(=O)n(-c5cccc(C(F)(F)F)c5)c4c3c2)cn1", "note": "[Torin2]", "values": [{"measurement": "min SC luc", "setting": "CMV-luc", "result": 128.4, "unit": "%"}, {"measurement": "IC50", "setting": "ATXN2-luc [4]; ATXN2-luc, Bright-Glo, H2 and S2 values used as replicates, 12 doses, 96-well plates, read-out: Mean IC50", "result": 0.257, "unit": "µM"}, {"measurement": "min ATXN2-luc", "setting": "ATXN2-luc [4]; minimum ATXN2-luc luciferase over 12 doses, H2 and S2 cells", "result": 25.42, "unit": "%"}]}, {"molecule": "COc1cccc(C2(O)CCCCC2CN(C)C)c1", "note": "(centres unmarked) [Tramadol]", "values": [{"measurement": "activity at 10 µM", "setting": "ATXN2-luc [3]", "result": 134, "unit": "%"}, {"measurement": "SD from Mean", "setting": "ATXN2-luc [2]; [5]", "result": "−3.415", "unit": "SD"}]}, {"molecule": "O=c1[nH]c(=O)n([C@H]2C[C@H](O)[C@@H](CO)O2)cc1C(F)(F)F", "note": "[Trifluridine]", "values": [{"measurement": "activity at 10 µM", "setting": "ATXN2-luc [3]", "result": 71, "unit": "%"}, {"measurement": "SD from Mean", "setting": "ATXN2-luc [2]; [5]", "result": "−5.158", "unit": "SD"}, {"measurement": "SD from Mean", "setting": "ATXN2-luc [2]; Table 5S, pilot screen, 10 μM", "result": "−5.158", "unit": "SD"}]}]}
